Measured values as given in patent US8933099B2, “Monocyclic pyridine derivative” (Eisai R&D Management Co., Ltd., priority 2013, dated 2015).

Assays:
Format in all cases: in vivo
[1] = test system: human lung cancer cell line NCI-H1581 xenograft; experiment: Antitumor effect in NCI-H1581 subcutaneous xenograft model in mice; conditions: oral, once a day for 11 days, tumor volume last day
Experimental: Human lung cancer cell line NCI-H1581, which had been cultured in RPMI-1640 medium containing 10% FBS, and penicillin and streptomycin, were adjusted to a concentration of 1×10^8 cells/mL with Hanks' Balanced Salt Solution(GIBCO #24020) to prepare a cell suspension, and the suspension was mixed with […] in a ratio of 1:1 to prepare a cell suspension in a concentration of 5×10^7 cells/mL. The cell suspension was inoculated in a volume of 100 μL into a subcutaneous part of a right flank of each of nude mice, 6 to 7 weeks of ages (BALB/cAJcl-nu/nu, female, Clea Japan Inc.). Ten to 11 days after the cell inoculation, the shortest diameter and the longest diameter of a tumor in each mouse were measured by using an electronic digital caliper (Digimatic™ caliper, Mitutoyo Corporation), so as to calculate the volume of the tumor in accordance with the following calculation formula: Tumor volume(mm^3)=Longest diameter(mm)×Shortest diameter(mm)×Shortest diameter(mm)/2
(§1) On the basis of the volumes of tumors obtained on the first day of administration, the nude mice were grouped such that averages of the tumor volumes were substantially equal among the groups. Each test substance was dissolved in DMSO, Tween 80 was added thereto to prepare a solution in a 10-fold concentration and the thus prepared solution was stored at the freezer before use. Immediately before the administration, the stock solution was diluted with a 5% glucose solution to obtain a final administration solution (in which a ratio in % among DMSO, Tween 80 and the 5% glucose solution was 3.5:6.5:90). Each evaluation sample was orally administered to test substance administration group at a volume of 0.4 mL per 20 g of body weight once a day continuously for 11 days, and in a control group, an administration solvent was orally administered under the same conditions. Incidentally, the experiment was conducted on groups each consisting of 5 mice.
(§2) With respect to each of the control group and test substance administration group, a ratio of the weight measured on the final day to the weight measured on the first day (relative body weight: RBW) was calculated. If a ratio of the RBW of the test substance administration group/the RBW of the control group is 0.9 or more, the corresponding test substance administration group was defined as a well-tolerated. In the test substance administration group thus defined as well-tolerated, a ratio of the tumor volume of the test substance-dosing group to the tumor volume of the control group obtained on the last day (TIC) (%) was calculated, and shown in Table 22.

[2] = test system: human endometrial cancer cell line AN3CA xenograft; experiment: Antitumor effect in AN3CA subcutaneous xenograft model in mice; conditions: oral, once a day for 14 days, tumor volume last day
Description: Human endometrial cancer cell line AN3CA (ATCC Number HTB-111), which had been cultured in an RPM-1640 medium containing 10% FBS, and penicillin and streptomycin, were adjusted to a concentration of 1×10^8 cells/mL with Hanks' Balanced Salt Solution (GIBCO #24020) to prepare a cell suspension, and the suspension was mixed with […] (BD Biosciences, Cat#354234) in a ratio of 1:1 to prepare a cell suspension in a concentration of 5×10^7 cells/ml. The cell suspension was inoculated in a volume of […] into a subcutaneous part of a right flank of nude mice, 7 weeks of age (BALB/cAJcl-nu/nu, female, Clea Japan Inc.). Eleven days after cell inoculation, the shortest diameter and the longest diameter of a tumor in each mouse were measured by using an electronic digital caliper (Digimatic™ caliper, Mitutoyo Corporation), so as to calculate the volume of the tumor in accordance with the following calculation formula: Tumor volume(mm^3)=Longest diameter(mm)×Shortest diameter(mm)×Shortest diameter(mm)/2
as §1, with “14” for “11”
as §2, with “(T/C)” for “(TIC)”, “26.” for “22.”

[3] = test system: human stomach cancer cell line SNU-16 xenograft; experiment: Antitumor effect in SNU-16 subcutaneous xenograft model in mice; conditions: oral, once a day for 11 days, tumor volume last day
Description: Human stomach cancer cell line SNU-16, which had been cultured in an RPMI-1640 medium containing 10% FBS, and penicillin and streptomycin, were adjusted to a concentration of 1×10^8 cells/mL with Hanks' Balanced Salt Solution (GIBCO #24020) to prepare a cell suspension, and the suspension was mixed with […] (BD Biosciences, Cat#354234) in a ratio of 1:1 to prepare a cell suspension in a concentration of 5×10^7 cells/ml. The cell suspension was inoculated in a volume of 100 ut into a subcutaneous part of a right flank of nude mice, 6 to 7 weeks of ages (BALB/cAiel-nu/nu, female, Clea Japan Inc.). Seven days after cell inoculation, the shortest diameter and the longest diameter of a tumor in each mouse were measured by using an electronic digital caliper (Digimatie™ caliper, Mitutoyo Corporation), so as to calculate the volume of the tumor in accordance with the following calculation formula: Tumor volume(mm^3)Longest diameter(mm)×Shortest diameter(mm)×Shortest diameter(mm)/2
as §1
as §2, with “mom,” for “more,”, “21.” for “22.”

SMILES: CNC(=O)n1ccc2cc(Oc3ccnc(NC(=O)c4ccc(C5CCN(CCO)CC5)cc4)c3)c(OCCOC)cc21 [Example 22, 5-((2-(4-(1-(2-Hydroxyethyl)piperidin-4-yl)benzamide)pyridin-4-yl)oxy)-6-(2-methoxyethoxy)-N-methyl-1H-indole-1-carboxamide]
- T/C (%) ([1]; 6.25 mg/kg): 46%
- T/C (%) ([1]; 12.5 mg/kg): 21%
- T/C (%) ([1]; 25 mg/kg): 13%
- T/C (%) ([1]; 50 mg/kg): 8%
- T/C (%) ([2]; 6.25 mg/kg): 29%
- T/C (%) ([2]; 12.5 mg/kg): 11%
- T/C (%) ([2]; 25 mg/kg): 4%
- T/C (%) ([2]; 50 mg/kg): 2%
- T/C (%) ([3]; 6.25 mg/kg): 49%
- T/C (%) ([3]; 12.5 mg/kg): 26%
- T/C (%) ([3]; 25 mg/kg): 17%
- T/C (%) ([3]; 50 mg/kg): 18%
